Laboratory results as given in patent publication US7572801B2, “Pyridopyrimidinone derivatives which are HM74A agonists” (Hoffmann-La Roche Inc., priority 2007, dated 2009).

What follows are molecules tested against T1, HM74A (Homo sapiens, UniProt Q8TDS4) (assay: Secondary fluorescent calcium indicator assay (FLIPR)). Conditions: stable transfected HEK-293 cells expressing HM74A and chimeric G protein Gqi9.
T1 construct: expressed in transfected cells; host or cells: HEK-293, stably transfected (pcDNA3.1 vectors), co-expressing chimeric G protein Gqi9
Assay type: cell-based
Experimental: Secondary Fluorescent Calcium Indicator Assay (FLIPR)
HEK-293 cells were grown in tissue culture medium (DMEM/Nut mix F12 Medium with Glutamax I (Invitrogen), containing 10% FBS) at 37° C. in a 5% CO2 atmosphere. These cells were cultured in 6-well dishes at 3×10^5 cells/well and double transfected with DNA vectors (pcDNA3.1, Invitrogen) expressing either HM74A or HM74 and the chimeric G protein Gqi9. Two days after transfection the wells were combined and plated in 150 cm^2 flasks, in the presence of 50 μg/ml Hygromycin (Invitrogen) and 500 μg/ml Geneticin (Gibco). Fourteen days after plating, colonies were picked, expanded and analyzed for expression using a functional assay (FLIPR). Stable transfected HEK-293 cells expressing either HM74A or HM74 and the chimeric G protein Gqi9 were plated at 50,000 cells/well in black 96-well plates with clear bottom (Costar) and cultured to confluency overnight in growth media (DMEM/Nut mix F12 Medium with Glutamax I (Invitrogen), containing 10% FBS) at 37° C. in a humidified cell incubator containing 5% CO2. Growth media was aspirated and replaced with 100 μl of 1× FLIPR Calcium Assay Dye (Molecular Devices) in Hank's balanced salt solution (HBSS) containing 10 mM HEPES, and […] probenecid (Sigma), for 1 hour at 37° C. Cell plates were transferred to a FLIPR unit (Molecular Devices), and 50 μl of 3× compound dilution were added. Fluorescence emissions were measured and the effects of compounds were expressed as % stimulation of maximal nicotinic acid response (100 μM). Sigmoidal curves were fitted using the XLfit3 program (ID Business Solutions Ltd. UK) and EC50 values determined.

T1 sequence (Q8TDS4 whole entry): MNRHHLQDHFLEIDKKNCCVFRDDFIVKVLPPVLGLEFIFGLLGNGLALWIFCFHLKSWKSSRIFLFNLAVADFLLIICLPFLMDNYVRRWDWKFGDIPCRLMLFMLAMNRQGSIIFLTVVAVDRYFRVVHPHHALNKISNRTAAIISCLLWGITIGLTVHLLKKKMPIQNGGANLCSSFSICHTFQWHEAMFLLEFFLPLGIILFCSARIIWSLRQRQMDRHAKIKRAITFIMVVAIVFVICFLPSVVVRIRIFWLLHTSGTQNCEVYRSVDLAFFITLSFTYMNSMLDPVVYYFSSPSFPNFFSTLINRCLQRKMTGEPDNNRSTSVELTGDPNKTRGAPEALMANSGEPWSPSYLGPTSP

| SMILES | EC50 |
| --- | --- |
| COc1ccc(CCCOc2nc3ncccc3c(=O)[nH]2)cc1 [Example 28, 2-[3-(4-Methoxy-phenyl)-propoxy]-3H-pyrido[2,3-d]pyrimidin-4-one] | 2710 nM |
| Cc1ccccc1OCCCOc1nc2ncccc2c(=O)[nH]1 [Example 58, 2-(3-o-Tolyloxy-propoxy)-3H-pyrido[2,3-d]pyrimidin-4-one] | 426 nM |
| O=c1[nH]c(COc2ccccc2)nc2ncccc12 [Example 2, 2-Phenoxymethyl-3H-pyrido[2,3-d]pyrimidin-4-one] | 5710 nM |
